In a melting point compilation (Tetko et al.; mined from patent text by program, amines drawn as free bases though some values may be those of a salt) one finds melting point data, which are given here for 90 compounds.

`CCN1C[C@@H](O)[C@H](NC2CCCCC2)C1` (relative stereo) yielded a melting point of 68 to 71 °C.

In the case of `Cc1ccc2cc(NC(=O)c3cccc(SCc4cc(Nc5ccccc5)n[nH]4)c3)ccc2n1`, the melting point was in the range of 172 to 174 °C.

`CCOC(=O)c1c(N2CCN(C=O)CC2)c2cc(C)ccc2n(-c2ccccc2)c1=O` gave a melting point of 240 °C.

With `CCOC(=O)C(=O)Nc1nc2ncn(C)c(=S)n2n1`, the melting point is 280 to 282 °C.

`O=C(C1CC1)N1CCC2C1CCCC2(O)c1ccc(Cl)cc1` (stereo not given) gave a melting point of 167 to 169 °C.

For `CCCOCc1ccc(C#CC2(O)CN3CCC2CC3)cc1` (stereo not given), the melting point was 140 to 141 °C.

As for `O=C(OCC1CCCCCCCCCC1)n1c(-c2cscn2)nc2ccccc21`, the melting point fell in the range of 86 to 87 °C.

For the compound `O=C(CCc1ccccc1)Nc1ccc2c(c1)C(=O)c1cc(NC(=O)CCc3ccccc3)ccc1C2=O`, the melting point was found to be 268 °C.

As for `CC(C)c1cc(OCCO)cc2c1C(=O)N(COc1nc3ccccn3c(=O)c1Cl)S2(=O)=O`, the melting point was in the range of 214 to 216 °C.

`CN(C)S(=O)(=O)c1ccccc1-c1ccc2c(c1)S(=O)(=O)NC(C1CCCCC1)N2` (stereo not given) gave a melting point of 290 to 300 °C.

Consider `COC(C)=CC(=O)Nc1cccc(OC(C)=O)c1`, for which the melting point was found to be 111 °C.

Regarding `N#CC1=C(Nc2cc(F)cc(F)c2)CCC1`, the melting point lay in the range of 113 to 115 °C.

Compound `N#Cc1ccc(C(=O)c2ccc(F)cc2)c(CO)c1` displayed a melting point of 85 °C.

Compound `NS(=O)(=O)c1ccc(N2CC(=O)N(c3ccccc3)C2=O)cc1` showed a melting point of 255 to 257 °C.

With `CCc1cn(C2CC(O)C(CCC(=O)Cc3c(Cl)cccc3Cl)O2)c(=O)[nH]c1=O` (stereo not given), the melting point lay in the range of 229 to 230 °C.

`COc1ccc([C@H]2SC=C(c3ccccc3)N(CCN(C)C)C(=O)[C@H]2O)cc1` returned a melting point of 110 to 112 °C.

`CN(C)c1snc2c1c(N)nc(=O)n2Cc1ccccc1` registered a melting point of 190 to 195 °C.

Turning to `COc1ccc(CNCC(O)c2ccccc2)cc1OC` (stereo not given), the melting point was in the range of 93 to 94 °C.

`CN1C(=O)C(c2ccc(OC(F)(F)F)cc2)(C23CC4CC(CC(C4)C2)C3)N=C1N` (stereo not given) displayed a melting point of 125 °C.

`CCOC(=O)C1(C(=O)OCC)C(CC)C(=O)N1Cc1ccc(OC)cc1OC` (stereo not given) returned a melting point of 69 °C.

The compound `O=C1COc2ccc(C3=Cc4ccccc4OC3c3ccccc3)cc2N1` (stereo not given) gave a melting point of 246 to 249 °C.

Compound `COc1ccc2nc(Cl)nc(Nc3ccccc3)c2c1` registered a melting point of 177 to 179 °C.

`CON(Cc1nc2c(N)nc3cc(OCc4ccccc4)ccc3c2n1CC1CCOCC1)S(C)(=O)=O` displayed a melting point of 195 to 197 °C.

As for `CN(C)C(=O)c1cccnc1S(=O)(=O)Cl`, the melting point was 114 to 117 °C.

`COC1CC2(C)C(CCC3C4CCC(C(=O)CBr)C4(C)CC(=O)C32)CC1O` (stereo not given) gave a melting point of 185 to 188 °C.

`Cc1ccc([N+](=O)[O-])c(C=O)c1C`: the melting point fell in the range of 66 to 68 °C.

The compound `c1cc(CN2CCCCC2)cc(OCCCCCNc2nc3ccccc3s2)c1` came in with a melting point of 140 to 145 °C.

Consider `Cc1cnc(N2CCN(C(=O)OC(C)(C)C)CC2)c2ccoc12`, for which the melting point was determined as 108 °C.

For `CCCc1nc(C=NNC(=O)OCC)c[nH]1`, the melting point was 180 to 182 °C.

`CCCOc1ncc(NC(=O)CC(=O)O)cc1-c1nc2c(CCC)nn(C)c2c(=O)[nH]1` yielded a melting point of 261 to 262 °C.

Compound `Clc1nc[nH]c2ncc(I)c1-2` displayed a melting point of 195 to 196 °C.

`Cc1nc2ccccn2c1-c1csc(Nc2cccc(C(=O)Nc3ccccc3N)c2)n1`: the melting point was 195 to 197 °C.

Turning to `COc1cc2ncc(C#N)c(Nc3ccc(Sc4nccn4C)c(Cl)c3)c2cc1OC`, the melting point lay in the range of 302 to 307 °C.

Consider `CCn1cc(C(=O)O)c(=O)c2cc(F)c(N3CC(N)C3)nc21`, for which the melting point was 260 to 262 °C.

`Cc1ccc(CN2C(=O)c3cccc4cccc2c34)cc1` displayed a melting point of 108 to 110 °C.

`C[C@H]1N(C(=O)c2ccc(OCC(F)(F)C(F)F)cc2)CC(=O)O[C@@]1(Cn1cncn1)c1ccc(F)cc1F` (relative stereo) registered a melting point of 78 to 83 °C.

`Cc1ccc(S(=O)(=O)n2cncn2)cc1` displayed a melting point of 105 to 107 °C.

For the compound `Cc1nn(C)c(C)c1C(=O)Nc1cccc2c1CCC2(C)C`, the melting point came to 152 °C.

`CC(c1cccc(F)c1)n1ncc(-c2ccc(S(N)(=O)=O)cc2)c(-c2ccc(F)cc2)c1=O` (stereo not given) gave a melting point of 192 to 194 °C.

`COC=C(C(=O)OC)c1ccccc1COc1ccccc1`: the melting point stood at 60 °C.

With `CCOc1ccc(O)c(CC(=O)OC)c1`, the melting point is 83 to 84 °C.

`COCCc1nc2c(N)nc3ccc(CCC(=O)N4CCOCC4)cc3c2n1CCCN1CCCC1=O` displayed a melting point of 168 to 170 °C.

`Cn1c(OC2CCOC2)n[nH]c1=O` (stereo not given) gave a melting point of 164 °C.

As to `Cc1cccc(NC(=O)NCC(=O)N(CC(=O)NCc2ccccc2)c2ccccc2)c1`, the melting point is 204 °C.

`CCOC(=O)C(C)(C(=O)OCC)C1CCCC(=O)C1` (stereo not given): the melting point was in the range of 129 to 130 °C.

Turning to `COc1ccc(CNc2ccccc2C(=O)Nc2ccc(Br)c(C(F)(F)F)c2)cn1`, the melting point is 101 to 103 °C.

The compound `O=C(NCCO)c1cccc(-c2cccc3nn(Cc4ccc(F)cc4)cc23)c1` returned a melting point of 137 to 138 °C.

On to `CCC1c2ccccc2-c2cc(-c3cccc4c3oc3ccccc34)ccc2N1S(=O)(=O)c1ccc(O)cc1` (stereo not given), for which the melting point was 218 to 220 °C.

Consider `CON1CCC2(CC1)NC(=O)C(F)(c1cc(C)ccc1C)C2=O` (stereo not given), for which the melting point was in the range of 127 to 130 °C.

`COc1ccc(-c2cc3ccccc3[nH]2)cc1NC(N)=S` showed a melting point of 188 to 191 °C.

`CCCCCCCCCCCCCCCCCC(CCC(=O)O)[N+](=O)[O-]` (stereo not given) returned a melting point of 55 to 56 °C.

As to `CP(=O)(O)CC(=O)CN`, the melting point was 148 to 149 °C.

As for `CC(C)(C)C(=O)NNc1ccc([N+](=O)[O-])cc1Cl`, the melting point amounted to 123 °C.

For `CCCCCCCCCCC(=O)C(=O)N[C@@H](CCCC)CCC(=O)O`, the melting point was 50 to 52 °C.

Compound `COc1cccc(CC(=O)O)c1OCCCc1cn(-c2ccc(Br)cn2)nc1C(C)C` showed a melting point of 152 to 153 °C.

In the case of `OCCOc1csc2ccccc12`, the melting point fell in the range of 55 to 56 °C.

`COc1cc(OC)cc(C2(Cl)C(=O)Nc3ccc(Cl)cc32)c1` (stereo not given) had a melting point of 157 °C.

In turn, `CC(C)(C)OC(=O)c1ncn2c1cc(C(=O)N1CCN(C3CC3)CC1)c1cc(Cl)ccc12` displayed a melting point of 229 to 233 °C.

`CC(=O)Nc1cccc(/C=C/C(=O)N2CC(CCl)c3c2cc(NC(=O)OCC2c4ccccc4-c4ccccc42)c2ccccc32)c1` (stereo not given) came in with a melting point of 208 to 209 °C.

Compound `COc1cc([N+](=O)[O-])ccc1S(=O)(=O)n1c(=O)n(-c2ccccc2)c2cc(Cl)ccc21` displayed a melting point of more than 250 °C.

With `Oc1ccc(I)c(-c2cc(O)ccc2I)c1`, the melting point fell in the range of 181 to 182 °C.

The compound `O=C(NN1CCN(CCc2c[nH]c3ccccc23)CC1)c1ccc(O)cc1` showed a melting point of 190 to 192 °C.

In turn, `Cc1nc(-c2ccc(=O)n(C(C)C)n2)c(-c2ccccc2)nc1N` showed a melting point of 208 to 210 °C.

As to `C=CCn1cc(C2CCN(CCOc3ccccc3C(=O)O)CC2)c2ccccc21`, the melting point was in the range of 123 to 125 °C.

Consider `COc1cc(C2(OC)CCOCC2)ccc1OCc1ccc2ccccc2c1`, for which the melting point was found to be 129 °C.

In turn, `Oc1cccc(C=C2c3ccc(Cl)cc3CCc3cccnc32)c1` showed a melting point of 221 °C.

As to `O=C(Nc1ccc(N2C[C@@H]3C[C@H]2CO3)c(F)c1)OCc1ccccc1`, the melting point was in the range of 120 to 121 °C.

Compound `O=C(OC1CCCCCCC1=O)c1ccccc1` (stereo not given) gave a melting point of 92 to 93 °C.

`CCOc1ccc(NCc2ccc(N(C)C)cc2)cc1` yielded a melting point of 98 to 99 °C.

Turning to `CCCCNC(=O)Nc1ccccc1CCc1cc(C(C)(C)C)c(O)c(C(C)(C)C)c1`, the melting point is 133 to 134 °C.

`CCCCCCC1(c2cc(O)c([C@@H]3CC(=O)C4CC3C4(C)C)c(O)c2)OCCO1` (stereo not given in full) returned a melting point of 185 to 186 °C.

As to `CC1=CC(=O)C(N)=CC1=N`, the melting point was 205 °C.

Regarding `Cc1nc(C)c(C(=O)NC(C)c2ccccc2)cc1CCl` (stereo not given), the melting point stood at 165 °C.

In the case of `OCc1cccc2c1CCCN2`, the melting point lay within 120 to 122 °C.

The compound `O=c1c2ccccc2sc2cc(F)ccc12` yielded a melting point of 168 °C.

Regarding `COc1ccc(-c2ccc(C(=O)Nc3ccc4cc(CN5CCCC5)cnc4c3)cn2)cc1`, the melting point is 246 to 248 °C.

`CC(C)(C)C(Br)(Br)C(=O)O` had a melting point of 241 to 243 °C.

As for `CCNC(=O)CC1CN=C(c2cc3cc(Oc4ccc(COC)nc4)cc(OC)c3[nH]2)S1` (stereo not given), the melting point was 130 to 132 °C.

As to `CCCCOCC(COCc1ccccc1)OCn1cnc2c(O)nc(NC(C)=O)nc21` (stereo not given), the melting point lay in the range of 139 to 141 °C.

Consider `Cc1nc(-c2ccc(Cl)cc2)c(CC(Cl)C(=O)O)o1` (stereo not given), for which the melting point lay in the range of 208 to 209 °C.

Take `Nc1c(-c2cc(Cl)ccc2O)c2cc(C(F)(F)F)ccc2[nH]c1=O`: the melting point was 233 to 235 °C.

Take `CN1CCC(c2n[nH]c3ccc([N+](=O)[O-])cc23)CC1`: the melting point is 237 to 239 °C.

As for `CCCOCc1cc2cc(-c3ccc4c(c3)C=C(C(=O)Nc3ccc(CN(C)C5CCOCC5)cc3)CCS4(=O)=O)ccc2o1`, the melting point was in the range of 204 to 206 °C.

In turn, `CN(CCCNc1ncc(Cc2ccc(Cl)cc2)c(=O)[nH]1)c1ccccn1` came in with a melting point of 65 °C.

For `COc1cc(C(C)=O)ccc1SCCCN1CCC(c2noc3cc(F)ccc23)CC1`, the melting point lay within 93 to 95 °C.

`COc1c(-c2cc3c(s2)CCC(O)C3)ccc2c(=O)c(C(=O)O)cn(C3CC3)c12` (stereo not given) had a melting point of 232 to 233 °C.

For `CNc1ccc2c(c1)N(C)C(=O)N(c1ccc(Cl)cc1)S2(=O)=O`, the melting point was in the range of 207 to 209 °C.

Compound `N#Cc1ncn2c(C(F)(F)F)cc(-c3cccc(Cl)c3)nc12` displayed a melting point of 221 °C.

`CS(=O)(=O)Cc1cc(F)cc(F)c1`: the melting point stood at 135 °C.

Consider `NC(=O)CCC(=NNC(N)=S)c1ccccc1`, for which the melting point fell in the range of 186 to 188 °C.
